PubChem BioAssay AID248 (DTP/NCI, 2004)
Where “and” joins values, the source holds several entries; their conditions need not be identical. Equal entries are not always repeated. Toxic doses and inconclusive results are not listed. Rule as the data show it: active = T/C of 150% or more; inactive = T/C below 125%.

Test system: L1210 leukemia ip in BDF1 mice, survival T/C
Assay: NCI In Vivo Anticancer Drug Screen. Data for tumor model L1210 Leukemia (intraperitoneal) in B6D2F1 (BDF1) mice
Conditions: endpoint: mean survival time, higher = longer survival
In short: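 Tumor cells were implanted, animals were treated, and survival was followed. The result divides the treated measurement by the vehicle-control measurement.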

[1] = dose: 100.0 mg/kg/injection, schedule: Q01DX001 (ip), vehicle: saline
[2] = dose: 200.0 mg/kg/injection, schedule: Q01DX001 (ip), vehicle: saline
[3] = dose: 100.0 mg/kg/injection, schedule: Q01DX009 (ip), vehicle: Klucel (hydroxypropylcellulose) (HPC)
[4] = dose: 200.0 mg/kg/injection, schedule: Q01DX009 (ip), vehicle: Klucel (hydroxypropylcellulose) (HPC)
[5] = dose: 400.0 mg/kg/injection, schedule: Q01DX009 (ip), vehicle: Klucel (hydroxypropylcellulose) (HPC)
[6] = dose: 100.0 mg/kg/injection, schedule: Q04DX003 (ip), vehicle: Klucel (hydroxypropylcellulose) (HPC)
[7] = dose: 200.0 mg/kg/injection, schedule: Q04DX003 (ip), vehicle: Klucel (hydroxypropylcellulose) (HPC)
[8] = dose: 400.0 mg/kg/injection, schedule: Q04DX003 (ip), vehicle: Klucel (hydroxypropylcellulose) (HPC)
[9] = dose: 50.0 mg/kg/injection, schedule: Q01DX009 (ip), vehicle: Klucel (hydroxypropylcellulose) (HPC)
[10] = dose: 25.0 mg/kg/injection, schedule: Q01DX009 (ip), vehicle: Klucel (hydroxypropylcellulose) (HPC)
[11] = dose: 100.0 mg/kg/injection, schedule: Q01DX009 (ip), vehicle: saline with Tween-80
[12] = dose: 100.0 mg/kg/injection, schedule: Q04DX003 (ip), vehicle: saline with Tween-80
[13] = dose: 200.0 mg/kg/injection, schedule: Q04DX003 (ip), vehicle: saline with Tween-80

Measured: T/C

Cc1ccc(S(=O)(=O)OCC2C(COS(=O)(=O)c3ccc(C)cc3)C3C=CC2C32CC2)cc1 (centres undefined)
inactive: dose: 100.0 mg/kg/injection, schedule: Q04DX002 (ip), vehicle: Klucel (hydroxypropylcellulose) (HPC) 105 % of control | dose: 200.0 mg/kg/injection, schedule: Q04DX002 (ip), vehicle: Klucel (hydroxypropylcellulose) (HPC) 110 % of control | dose: 400.0 mg/kg/injection, schedule: Q04DX002 (ip), vehicle: Klucel (hydroxypropylcellulose) (HPC) 102 % of control

O=C(O)c1cccc(-c2ccccc2)c1O
inactive: [1] 97 % of control | [2] 102 % of control

CCOC(=O)c1ccc(NC(=O)Oc2cccc(NC(C)=O)c2)cc1
inactive: [3] 92 % of control | [4] 95 % of control | [5] 92 % of control

Clc1ccc(N=Cc2ccccc2)cc1
inactive: [3] 104 % of control | [6] 95 % of control | [4] 103 % of control | [7] 96 % of control | [5] 98 % of control | [8] 104 % of control

CC1CN1CC1CO1 (centres undefined)
inactive: dose: 0.5 mg/kg/injection, schedule: Q01DX001 (ip), vehicle: saline 98 % of control | dose: 0.5 mg/kg/injection, schedule: Q01DX009 (ip), vehicle: acetone 97 % of control | dose: 0.5 mg/kg/injection, schedule: Q04DX003 (ip), vehicle: acetone 104 % of control | dose: 1.0 mg/kg/injection, schedule: Q01DX001 (ip), vehicle: saline 95 % of control | dose: 1.0 mg/kg/injection, schedule: Q01DX009 (ip), vehicle: acetone 96 % of control | dose: 1.0 mg/kg/injection, schedule: Q04DX003 (ip), vehicle: acetone 101 % of control | dose: 2.0 mg/kg/injection, schedule: Q01DX001 (ip), vehicle: saline 98 % of control | dose: 2.0 mg/kg/injection, schedule: Q01DX009 (ip), vehicle: acetone 100 % of control | dose: 2.0 mg/kg/injection, schedule: Q04DX003 (ip), vehicle: acetone 104 % of control | dose: 2.97 mg/kg/injection, schedule: Q01DX009 (ip), vehicle: acetone 97 % of control | dose: 4.5 mg/kg/injection, schedule: Q01DX009 (ip), vehicle: acetone 97 % of control | dose: 6.75 mg/kg/injection, schedule: Q01DX009 (ip), vehicle: acetone 115 % of control | dose: 9.9 mg/kg/injection, schedule: Q01DX009 (ip), vehicle: acetone 102 % of control | dose: 15.0 mg/kg/injection, schedule: Q01DX009 (ip), vehicle: acetone 100 % of control | dose: 22.5 mg/kg/injection, schedule: Q01DX009 (ip), vehicle: acetone 94 % of control

CCCCNC(C)(C)C(SS)c1cccs1 (centres undefined)
inactive: dose: 100.0 mg/kg/injection, schedule: Q04DX003 (ip), vehicle: saline sonified 96 % of control | dose: 200.0 mg/kg/injection, schedule: Q04DX003 (ip), vehicle: saline sonified 92 % of control | dose: 400.0 mg/kg/injection, schedule: Q04DX003 (ip), vehicle: saline sonified 96 % of control

CN=C(N)c1ccc(C(=O)OCCOC)cc1
inactive: [1] 96 % of control | [2] 107 % of control | dose: 400.0 mg/kg/injection, schedule: Q01DX001 (ip), vehicle: saline 105 % of control

CC(C)Oc1ccc2ccccc2c1
inactive: dose: 12.5 mg/kg/injection, schedule: Q04DX003 (ip), vehicle: acetone 94 % of control | dose: 25.0 mg/kg/injection, schedule: Q04DX003 (ip), vehicle: acetone 93 % of control | dose: 50.0 mg/kg/injection, schedule: Q04DX003 (ip), vehicle: acetone 93 % of control

NC(=S)N/N=C/c1[nH]c(=O)[nH]c(=O)c1Br
inactive: dose: 100.0 mg/kg/injection, schedule: Q01DX001 (ip), vehicle: saline with Tween-80 93 % of control | dose: 200.0 mg/kg/injection, schedule: Q01DX001 (ip), vehicle: saline with Tween-80 97 % of control | dose: 400.0 mg/kg/injection, schedule: Q01DX001 (ip), vehicle: saline with Tween-80 103 % of control

CCOC(=O)C(N)Cc1ccc(N(CCCl)CCCl)cc1 (centres undefined)
active: dose: 4.0 mg/kg/injection, schedule: Q01DX Z (ip), vehicle: saline 161 % of control and 190 % of control | dose: 4.0 mg/kg/injection, schedule: Q01DX Z (oral), vehicle: saline 162 % of control and 168 % of control | dose: 6.0 mg/kg/injection, schedule: Q01DX Z (ip), vehicle: saline 160 % of control and 164 % of control and 202 % of control | dose: 9.0 mg/kg/injection, schedule: Q01DX Z (ip), vehicle: saline 162 % of control and 164 % of control and 172 % of control | dose: 13.5 mg/kg/injection, schedule: Q01DX Z (ip), vehicle: saline 165 % of control
inactive: dose: 0.06 mg/kg/injection, schedule: Q01DX Z (ip), vehicle: saline 99 % of control | dose: 0.13 mg/kg/injection, schedule: Q01DX Z (ip), vehicle: saline 124 % of control | dose: 0.5 mg/kg/injection, schedule: Q01DX Z (oral), vehicle: saline 120 % of control | dose: 2.0 mg/kg/injection, schedule: Q01DX Z (ip), vehicle: saline 122 % of control | dose: 16.0 mg/kg/injection, schedule: Q01DX Z (oral), vehicle: saline 87 % of control and 88 % of control | dose: 20.0 mg/kg/injection, schedule: Q01DX Z (ip), vehicle: saline 97 % of control

CCCNC1(C(=O)O)CCCc2ccccc21 (centres undefined)
inactive: [6] 100 % of control | [7] 100 % of control | [8] 102 % of control

OC1(c2ccncc2)CCc2ccccc21 (centres undefined)
inactive: [9] 101 % of control | [3] 98 % of control | [6] 97 % of control | [4] 102 % of control | [7] 101 % of control

CC(C)(C)C(=O)CC(=O)C(C)(C)C.CC(C)(C)C(=O)CC(=O)C(C)(C)C.CC(C)(C)C(=O)CC(=O)C(C)(C)C.[Co]
inactive: dose: 100.0 mg/kg/injection, schedule: Q04DX002 (ip), vehicle: gum acacia 107 % of control | dose: 200.0 mg/kg/injection, schedule: Q04DX002 (ip), vehicle: gum acacia 90 % of control | dose: 400.0 mg/kg/injection, schedule: Q04DX002 (ip), vehicle: gum acacia 93 % of control

O=C(N/N=C/C1CCCCC1)C(=O)N/N=C/C1CCCCC1
inactive: dose: 12.5 mg/kg/injection, schedule: Q01DX009 (ip), vehicle: Klucel (hydroxypropylcellulose) (HPC) 90 % of control | [10] 96 % of control and 89 % of control | [4] 89 % of control

ClN=C(c1ccccc1)c1ccccc1
inactive: dose: 12.0 mg/kg/injection, schedule: Q01DX009 (ip), vehicle: Klucel (hydroxypropylcellulose) (HPC) 110 % of control | [10] 102 % of control | [9] 107 % of control | [6] 100 % of control | [7] 98 % of control

CN(Cc1cc(Br)cc(Br)c1O)C1CC2CCC1(C)C2(C)C (centres undefined)
inactive: [6] 88 % of control | [7] 95 % of control | [8] 88 % of control

CCCCCCCCCCCC(=O)NC(=S)Nc1ccccc1C(F)(F)F
inactive: [6] 104 % of control | [7] 92 % of control | [8] 92 % of control

Cc1noc(N)c1-n1c(C)ccc1C
inactive: [11] 102 % of control | [12] 100 % of control | dose: 200.0 mg/kg/injection, schedule: Q01DX009 (ip), vehicle: saline with Tween-80 105 % of control | [13] 98 % of control | dose: 400.0 mg/kg/injection, schedule: Q01DX009 (ip), vehicle: saline with Tween-80 100 % of control | dose: 400.0 mg/kg/injection, schedule: Q04DX003 (ip), vehicle: saline with Tween-80 94 % of control

CC(=O)N(C)c1cc(N)ccc1OCc1ccccc1
inactive: dose: 12.5 mg/kg/injection, schedule: Q04DX003 (ip), vehicle: saline with Tween-80 91 % of control | dose: 25.0 mg/kg/injection, schedule: Q01DX009 (ip), vehicle: saline with Tween-80 100 % of control | dose: 25.0 mg/kg/injection, schedule: Q04DX003 (ip), vehicle: saline with Tween-80 98 % of control and 101 % of control | dose: 50.0 mg/kg/injection, schedule: Q01DX009 (ip), vehicle: saline with Tween-80 96 % of control | dose: 50.0 mg/kg/injection, schedule: Q04DX003 (ip), vehicle: saline with Tween-80 95 % of control and 102 % of control | [11] 102 % of control | [12] 95 % of control and 113 % of control | [13] 97 % of control

Cn1c(N)c(N=Nc2ccc(S(=O)(=O)Nc3nccs3)cc2)c(=O)n(C)c1=O
inactive: dose: 100.0 mg/kg/injection, schedule: Q01DX001 (ip), vehicle: carboxymethylcellulose (CMC) 102 % of control | dose: 200.0 mg/kg/injection, schedule: Q01DX001 (ip), vehicle: carboxymethylcellulose (CMC) 96 % of control | dose: 400.0 mg/kg/injection, schedule: Q01DX001 (ip), vehicle: carboxymethylcellulose (CMC) 90 % of control
